US20250163370A1, “METHOD FOR INDUCING DIFFERENTIATION OF PLURIPOTENT STEM CELLS INTO RETINAL PIGMENT […]” (OSAKA UNIVERSITY, priority 2022, published 2025)
“Also recorded” adds a separate entry of the source.

Test system: Human skin-derived iPS cells (253G1)
Assay type: cell-based

With hemagglutinin [HA complex] as the substance, how does the “differentiation into other cells (RPE cell versus cell group with fibroblast-like morphology)” value read?
Its value is “<<cell group; also recorded: <cell group”.

And the “formation of cell aggregates in three-dimensional layer structure” value?
The value was “small cell; also recorded: smaller cell”.

And the “intercellular adhesion of the cell aggregates” value?
Its value is “moderately loosened”.

What about the “number of cells that differentiated into RPE cells” value of the same substance?
The value was “increased strikingly”.

What about the “number of fibroblast-like cell groups (undesired cells observed together with RPE cells)” value of the same substance?
The value was “decreased”.

And the “size of the cell aggregates” value?
The value was “became smaller”.
